The text below walks through data of patent US20180065968A1, “NEW SUBSTITUTED TRIAZOLOPYRIMIDINES AS ANTI-MALARIAL AGENTS” (BOARD OF REGENTS OF THE UNIVERSITY OF TEXAS SYSTEM, priority 2015, published 2018).

For data set [1], the system named is P. falciparum FC27 lab lines. As to the kind of experiment: Ex vivo schizont maturation assay, lab line. Type of data set: cell-based. The note with it: Plasmodium falciparum, read-out: P. falciparum FC27 lab lines IC50. The protocol: (§1) To assess comparative activity between P. falciparum and P. vivax strains compounds were tested in an ex vivo parasite assay using Plasmodium isolates from patients who visited clinics in Timika (Papua, Indonesia). Parasites in this region are resistant to standard anti-malarials such as chloroquine. P. vivax can not be cultivated in vitro so the ex vivo assay is the only method to evaluate drug sensitivity. Patients with parasitemia between 2000 and 80,000 ul^−1 were eligible for recruitment into the study. Blood was collected by venipuncture, host white blood cells were removed and packed infected red blood cells were used for the ex vivo studies. Drug susceptibility was measured as previously described (Russell et al., 2008, Antimicrobial Agents Chemother., 52, 1040-1045; Marfurt et al., 2011, Antimicrobial Agents Chemother., 55, 961-966; Marfurt et al., 2011, Antimicrobial Agents Chemother., 55, 4461-4464). Briefly two hundred μl of a 2% hematocrit blood mixture, consisting of RPMI 1640 medium plus 10% AB+ human serum (P. falciparum) or McCoy's 5A medium plus 20% AB+ human serum (P. vivax) was added to each well of pre-dosed drug plates containing serial 2-fold dilutions of the anti-malarial compound. A candle jar was used to mature parasites at 37° C. for 35-56 hrs. […] Thick blood films made from each well were stained with 5% Giemsa for 30 min and examined microscopically. The number of schizonts per 200 asexual stage parasites was determined and normalized to the control well. Data were analyzed by nonlinear regression (WinNonLn 4.1) to determine the IC50 using the inhibitory sigmoid Emax model.
(§2) Drug plate quality was assured by running schizont maturation assays (two independent experiments) with the chloroquine-resistant strain K1 and the chloroquine-sensitive strain FC27. For microscopy slide reading QC, two randomly selected drugs per isolate were read by a second microscopist. […] If necessary, discrepant results were resolved by a third reading by an expert microscopist.

Data set [2] concerns P. vivax clinical isolates. As to the kind of experiment: Ex vivo schizont maturation assay, clinical isolates. In kind it is cell-based. The note with it: Plasmodium vivax, read-out: P. vivax clinical isolates IC50. The protocol: as §1, §2
The subject of data set [3] is P. falciparum Pf3D70087/N9. As to the kind of experiment: SCID mouse P. falciparum in vivo efficacy model. Also noted: species or system P. falciparum in NOD-scid IL-2Rγnull (NSG) mice. The settings on record: oral, starting day 3 post infection, NSG mice engrafted with human erythrocytes. The protocol:
Briefly, NOD-scid IL-2Rγnull (NSG) mice (Jackson Laboratory, USA) (23-36 g) engrafted with human erythrocytes as described were infected with 20×10^6 P. falciparum Pf3D70087/N9) generated in GlaxoSmithkline Tres Cantos (Spain) by intravenous injection. Compounds were administered orally in vehicle (saline solution for Chloroquine; 0.5% w/v sodium carboxymethylcellulose, 0.5% v/v benzyl alcohol, 0.4% v/v Tween 80 in water for triazolopyrimidine analogs). Compounds were administered at target doses ranging from 0.5 to 75 mg/kg (free base equivalent) starting on day 3 post infection. Formulation concentrations were measured to obtain the actual doses administered. Parasitemia was monitored by flow cytometry and the effective dose (ED90) was calculated as described in Jimenez-Diaz, 2009, Antimicrobial agents and chemotherapy, 53, 4533-4536.

Data set [4] has as its system P. falciparum clinical isolates. As to the kind of experiment: Ex vivo schizont maturation assay, clinical isolates. In kind it is cell-based. The settings on record: Plasmodium falciparum, read-out: P. falciparum clinical isolates IC50. The protocol:
as §1, §2

Another data set has as its system P. falciparum 3D7. As to the kind of experiment: P. falciparum 3D7 growth inhibition assay (SYBR green). In kind it is cell-based. The settings on record: Plasmodium falciparum, 72 h incubation, 50% growth inhibition, read-out: Pf 3D7 EC50. The protocol:
The ability of triazolopyrimidine derivatives according to the invention to kill P. falciparum parasites and/or to inhibit its proliferation is assayed through their ability to inhibit Plasmodium falciparum growth. The growth inhibition assay is as follows: P. falciparum 3D7 cells were grown in Gibco-Invitrogen RPMI-1640 supplemented with 2% (w/v) red blood cells (RBCs) and either 20% human type A+ plasma (Desjardins et al., 1979, Antimicrob Agents Chemother. 16, 710-718) or with Gibco-Invitrogen 0.5% Albumax I (Coteron et al., 2011, J. Med. Chem., 54, 5540-5561). Serial dilutions of compound stocks were prepared in 100% DMSO at 200× the final concentration, followed by generation of 20× stocks in media. Cell growth was monitored by the SYBR green method as described (Deng, et al., 2014. J. Med. Chem., 57, 5381-539). Parasites (0.19 ml of 0.5% parasitemia, 0.5% HCT) were plated into 96-well microtiter plates containing 10 μL compound or DMSO control (final DMSO concentration of 0.5%). Non-parasitized RBCs (0.5% HCT) were used as a control to determine background fluorescence. After 72 h of incubation parasitized RBCs were quantitated by the SYBR Green method. 2× SYBR Green I solution (20 μL) in 1× PBS was mixed with 20 μL parasites in 96-well plates, incubated for 20 min, and after which 160 μL of 1× PBS was added. Fluorescence was detected using a BD Biosciences Acurri C6 flow cytometer and events recorded within gates that encompassed all asexual growth stages of the P. falciparum intraerythrocytic life cycle. A minimum 50,000 total events were recorded per well. Background events determined from non-parasitized RBC controls were subtracted from final counts.

Another data set addresses T1, pfDHODH (Plasmodium falciparum, UniProt Q08210).
T1 sequence (Q08210 24-569): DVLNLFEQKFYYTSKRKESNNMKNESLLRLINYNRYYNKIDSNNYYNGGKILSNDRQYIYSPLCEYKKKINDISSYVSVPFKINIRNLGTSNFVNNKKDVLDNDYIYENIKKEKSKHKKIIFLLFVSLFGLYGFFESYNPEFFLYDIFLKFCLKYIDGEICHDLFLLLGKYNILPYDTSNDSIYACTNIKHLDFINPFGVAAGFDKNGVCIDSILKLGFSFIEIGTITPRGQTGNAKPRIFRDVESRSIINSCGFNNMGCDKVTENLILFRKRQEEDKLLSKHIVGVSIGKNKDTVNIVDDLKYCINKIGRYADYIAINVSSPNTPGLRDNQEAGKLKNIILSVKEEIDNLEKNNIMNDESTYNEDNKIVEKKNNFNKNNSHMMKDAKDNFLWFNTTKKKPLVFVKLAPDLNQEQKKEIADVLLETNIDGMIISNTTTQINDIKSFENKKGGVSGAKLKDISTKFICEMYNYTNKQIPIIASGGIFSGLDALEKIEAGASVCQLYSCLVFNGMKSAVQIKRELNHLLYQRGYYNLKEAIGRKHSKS
As to the kind of experiment: biochemical. The protocol:
(§3) The compounds of the invention were also assessed for inhibitory activity against recombinant DHODH from the indicated species. Recombinant enzymes were produced and purified from E. coli as His6 fusion proteins and purified by Ni^+2-agarose chromatography as described.
(§4) Data were collected on a Synergy H1 hybrid plate reader in 96 well plate format at 28° C., using a final assay volume of 200 μl. Rate data (v) were converted to μmoles/min using the molar extinction coefficient for DCIP. Compounds were prepared in stock solutions of DMSO. An initial 100 mM stock was generated and this was used to prepare a 3 fold dilution series in DMSO. A 1:100 dilution of DMSO stock was made into assay buffer to generate the final concentration in the assay mix.
(§5) Assay Conditions: DHODH (ET=5-10 nM), substrates (0.2 mM L-dihydroorotate and 0.02 mM CoQD), DCIP (0.12 mM) and assay buffer (100 mM HEPES, pH 8.0, 150 mM NaCl, 10% Glycerol, 0.1%Triton) at 20° C. Concentration of compounds of the invention was varied in a 3-fold dilution series (0.01-100 uM). All data were collected in triplicate.
(§6) Fitting was performed in Graph Pad Prism to determine the IC50. Reported error represents the 95% confidence interval of the fit or the standard deviation of the mean.

In the next data set the target is dog DHODH (Canis lupus familiaris, UniProt A0A8I3MWX2). As to the kind of experiment: Recombinant DHODH inhibition, DCIP dye-based assay. Type of data set: biochemical. The protocol: as §3, §4, §5, §6
A further data set concerns the target human DHODH (Homo sapiens, UniProt Q02127). As to the kind of experiment: Recombinant DHODH inhibition, DCIP dye-based assay. In kind it is biochemical. The settings on record: first value of cell, read-out: h/d/m/r DHODH (h). The protocol:
as §3, §4, §5, §6

The target in a further data set is mouse DHODH (Mus musculus, UniProt O35435). As to the kind of experiment: Recombinant DHODH inhibition, DCIP dye-based assay. Type of data set: biochemical. The settings on record: third value of cell, read-out: h/d/m/r DHODH (m). The protocol:
as §3, §4, §5, §6

A further data set deals with rat DHODH (Rattus norvegicus, UniProt Q63707). As to the kind of experiment: Recombinant DHODH inhibition, DCIP dye-based assay. The note with it: fourth value of cell, read-out: h/d/m/r DHODH (r). Type of data set: biochemical. The protocol:
as §3, §4, §5, §6

The nature of data set [5]: Aqueous kinetic solubility by nephelometry. In kind it is physicochemical. The note with it: pH 6.5 phosphate buffer, 1% DMSO; for solubility kinetic: aqueous buffer, kinetic from dmso stock, read-out: Kinetic Solubility pH6.5. The protocol: Aqueous solubility was estimated by nephelometry. Concentrated stock solutions were prepared in DMSO and diluted into either pH 6.5 phosphate buffer or 0.01 M HCl (approximately pH 2.0), with the final DMSO concentration being 1%. Samples were then analyzed by nephelometry to determine the solubility range as described previously (Bevan, et al., 2000, Anal. Chem., 72, 1781-1787).

Setting [6] is: recombinant enzyme, DCIP assay, IC50, read-out: PfDHODH.
Setting [7] is: dog DHODH, second value of cell, read-out: h/d/m/r DHODH (d).
Where [8] appears, read: ex vivo schizont maturation, 35-56 hrs, isolates from Timika (Papua, Indonesia).

Structures are written as SMILES. Converted amounts (≈) assume the structure as drawn. Read-outs that look alike come from different tables or passages of the source.

Chain of mouse DHODH (O35435 whole entry): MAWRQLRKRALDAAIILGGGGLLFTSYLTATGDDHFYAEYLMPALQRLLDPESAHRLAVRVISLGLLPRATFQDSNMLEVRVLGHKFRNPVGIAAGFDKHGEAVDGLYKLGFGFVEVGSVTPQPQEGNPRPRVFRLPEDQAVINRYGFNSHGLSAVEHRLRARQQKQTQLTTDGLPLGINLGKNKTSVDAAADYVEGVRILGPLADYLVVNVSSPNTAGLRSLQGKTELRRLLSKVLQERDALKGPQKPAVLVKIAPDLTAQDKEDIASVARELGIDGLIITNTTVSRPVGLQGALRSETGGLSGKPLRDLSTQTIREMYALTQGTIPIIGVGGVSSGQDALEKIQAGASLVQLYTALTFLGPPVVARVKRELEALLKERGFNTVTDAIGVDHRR
Chain of rat DHODH (Q63707 whole entry): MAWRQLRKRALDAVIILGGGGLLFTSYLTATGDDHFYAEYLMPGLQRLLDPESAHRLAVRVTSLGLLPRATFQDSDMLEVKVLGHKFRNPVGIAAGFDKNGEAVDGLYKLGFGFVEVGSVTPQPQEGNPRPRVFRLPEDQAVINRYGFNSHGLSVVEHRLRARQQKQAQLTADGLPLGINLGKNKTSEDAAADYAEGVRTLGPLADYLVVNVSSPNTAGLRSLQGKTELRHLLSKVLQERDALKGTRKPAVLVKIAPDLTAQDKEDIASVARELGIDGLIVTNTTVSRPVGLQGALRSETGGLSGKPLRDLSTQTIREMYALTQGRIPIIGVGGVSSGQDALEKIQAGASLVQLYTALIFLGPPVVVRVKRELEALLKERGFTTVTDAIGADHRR
Chain of dog DHODH (A0A8I3MWX2 1-406): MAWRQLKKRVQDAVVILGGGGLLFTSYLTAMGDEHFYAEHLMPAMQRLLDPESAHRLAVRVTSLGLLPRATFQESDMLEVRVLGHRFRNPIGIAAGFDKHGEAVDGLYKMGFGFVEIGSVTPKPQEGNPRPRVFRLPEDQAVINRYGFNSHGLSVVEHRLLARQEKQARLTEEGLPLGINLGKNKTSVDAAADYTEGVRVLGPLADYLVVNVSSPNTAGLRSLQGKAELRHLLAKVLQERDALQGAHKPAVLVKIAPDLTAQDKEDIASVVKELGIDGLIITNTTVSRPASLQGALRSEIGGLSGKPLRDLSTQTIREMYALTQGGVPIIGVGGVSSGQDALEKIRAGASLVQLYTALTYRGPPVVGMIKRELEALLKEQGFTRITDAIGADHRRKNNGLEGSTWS
Chain of human DHODH (Q02127 whole entry): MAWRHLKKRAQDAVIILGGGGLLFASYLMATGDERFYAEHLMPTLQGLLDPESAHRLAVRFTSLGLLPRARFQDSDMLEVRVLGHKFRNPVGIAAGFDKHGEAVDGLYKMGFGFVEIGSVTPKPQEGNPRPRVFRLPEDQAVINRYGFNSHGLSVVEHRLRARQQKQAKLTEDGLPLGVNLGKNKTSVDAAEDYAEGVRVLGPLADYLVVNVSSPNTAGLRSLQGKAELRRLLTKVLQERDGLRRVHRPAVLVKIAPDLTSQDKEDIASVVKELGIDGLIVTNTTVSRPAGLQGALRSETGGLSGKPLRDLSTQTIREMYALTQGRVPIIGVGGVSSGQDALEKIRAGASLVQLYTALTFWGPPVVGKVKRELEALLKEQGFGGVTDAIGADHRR

For the molecule `C[C@H]1[C@H](OC(=O)CCC(=O)O)O[C@@H]2O[C@@]3(C)CC[C@H]4[C@H](C)CC[C@@H]1[C@@]24OO3` [Artesunate], the IC50 in [1] lay within 3.6 to 11 nM; in [2], 0.8 to 2.9 nM.
In turn, `CCN(CC)CCCC(C)Nc1ccnc2cc(Cl)ccc12` (stereo not drawn) [Chloroquine] gave an ED90 in data set [3] of 4.3 mg/kg per day. Also, the IC50 in [1] lay in the range of 23 to 32 nM; in [4], 86 to 101 nM; in data set [2], 43 to 147 nM.
The term EC50 denotes the midpoint of the concentration-response curve. The kinetic solubility is solubility judged after dilution from a stock solution rather than from solid. Turning to `Cc1nc2nc(C(C)(F)F)nn2c(Nc2ccc(C(F)(F)F)nc2)c1F` [Compound (2), 2-(1,1-difluoroethyl)-6-fluoro-5-methyl-N-(6-(trifluoromethyl)pyridin-3-yl)-[1,2,4]triazolo[1,5-a]pyrimidin-7-amine], the EC50 with P. falciparum 3D7 worked out at 16 nM. Besides, the IC50 on pfDHODH (setting [6]) was 23 nM; on dog DHODH (setting [7]) it was 9200 nM; on human DHODH, 62000 nM; on mouse DHODH it was 20000 nM; on rat DHODH, 15700 nM. The kinetic solubility in [5] is above 100 µg/mL.
In the case of `Cc1cc(Nc2ccc(C(F)(F)F)nc2)n2nc(C(F)(F)F)nc2n1` [Compound (3), 5-methyl-2-(trifluoromethyl)-N-(6-(trifluoromethyl)pyridin-3-yl)-[1,2,4]triazolo[1,5-a]pyrimidin-7-amine], the EC50 in the data set on P. falciparum 3D7 is 35 nM. Besides, the IC50 on pfDHODH (setting [6]) was 41 nM; at dog DHODH, 39000 nM; on human DHODH, above 100000 nM; at mouse DHODH it was 33000 nM; on rat DHODH, 8400 nM. In data set [5], the solubility (kinetic) is 50 µg/mL (≈ 138 µM).
Regarding `CCc1nc(N)nc(N)c1-c1ccc(Cl)cc1` [Pyrimethamine], the ED90 in [3] is reported as 0.9 mg/kg per day.
As for `Cc1cc(Nc2ccc(C(F)(F)F)nc2)n2nc(C(C)(F)F)nc2n1` [Reference 1], the IC50 on pfDHODH (setting [6]) was 50 nM; at dog DHODH (setting [7]), 21000 nM; on human DHODH it was 58000 nM; at mouse DHODH, 74000 nM; on rat DHODH, 4400 nM. The “Kinetic Solubility pH6.5” value in [5] stood at 6.3 μg/ml.
With `Cc1cc(Nc2ccc(C(F)(F)F)cn2)n2nc(C(F)(F)F)nc2n1` [Reference 2], the EC50 with P. falciparum 3D7 amounted to 70 nM. For the same molecule, the results for the IC50 on pfDHODH (setting [6]) and at human DHODH were 37 nM and above 50000 nM, respectively. In addition, the kinetic solubility in data set [5] is 1.6 µg/mL (≈ 4.42 µM).
Regarding `Cc1cc(Nc2ccc(C(F)(F)F)cc2)n2nc(C(C)(F)F)nc2n1` [Reference 3], the EC50 in the data set on P. falciparum 3D7 came to 8.3 nM. The IC50 at pfDHODH was 31 nM; at dog DHODH (setting [7]), above 100000 nM; at human DHODH it was above 100000 nM; on mouse DHODH, 24000 nM; on rat DHODH, 7200 nM. Besides, the kinetic solubility in data set [5] was 50 µg/mL (≈ 140 µM). The ED90 in [3] amounted to 26 mg/kg per day.
Take `Cc1cc(Nc2ccc(S(F)(F)(F)(F)F)cc2)n2nc(C(C)(F)F)nc2n1` [Reference 4]: the EC50 in the data set with P. falciparum 3D7 came out at 5 nM. In [5], the solubility (kinetic) was 25 µg/mL (≈ 60.2 µM). In addition, in [3], the ED90 is given as 8.1 mg/kg per day. In addition, the IC50 came out at 177 nM in [1] (ex vivo schizont maturation, 35-56 hrs, FC27 chloroquine sensitive lab strain); 190 nM in data set [4] (setting [8]); 920 nM in data set [2] (setting [8]).
